Data reported in patent publication EP4410284A1, “COMPOUND AND METHOD FOR THE TREATMENT OF ZELLWEGER SPECTRUM DISORDER” (Apteeus, priority 2023, dated 2024).
Like-named read-outs stand apart in the source and are kept apart here.

Tests used:
GM16513 cells [1] = experiment: Catalase import immunofluorescence, high-content screening (% importing cells); assay type: cell-based, human; conditions: for EC50 / Emax: Homo sapiens, 72 h; for Emax: read-out: Max Efficacy (% Importing cells)
GM16513 cells [2] = assay type: cell-based; conditions: 3 days, PI positive cells (dead cells)
PEX405 cells [3] = experiment: Catalase import immunofluorescence, high-content screening (% importing cells); assay type: cell-based, human; conditions: PEX405 cells, 3 days
PEX405 cells [4] = assay type: cell-based; conditions: 3 days, PI positive cells (dead cells)
[5] = GM16513 cells, dose response with 6 concentrations, 3 days, read-out: EC50
[6] = GM16513 cells, dose response with 6 concentrations, 3 days

Row | SMILES | % PI+ cells (GM16513 cells [2]; 1.3 µM) [%] | % PI+ cells (GM16513 cells [2]; 10 µM) [%] | % PI+ cells (PEX405 cells [4]; 1.3 µM) [%] | % PI+ cells (PEX405 cells [4]; 10 µM) [%] | EC50 (GM16513 cells [1]; [5]) [µM] | % Importing cells (GM16513 cells [1]; GM16513 cells, 1.3 µM, 3 days) [%] | % Importing cells (GM16513 cells [1]; GM16513 cells, 10 µM, 3 days) [%] | % Importing cells (PEX405 cells [3]; 1.3 µM) [%] | % Importing cells (PEX405 cells [3]; 10 µM) [%] | Emax (GM16513 cells [1]; [6]) [%] | EC50 (GM16513 cells [1]) [µM] | Emax (GM16513 cells [1]) [%]
1 | O=C(/C=C/c1ccc(CN(CCO)CCc2c[nH]c3ccccc23)cc1)NO [Dacinostat] | 31 | 35 | 45 | 56 |  | 88 | 76 | 25 | 0 |  |  | 
2 | Cn1cc(-c2ccc(S(=O)(=O)n3ccc(/C=C/C(=O)Nc4ccccc4N)c3)cc2)cn1 [Domatinostat] | 6 | 7 | 5 | 8 | 0.6 | 21 | 33 | 4 | 7 | 33 |  | 
3 | Cc1cc(Cl)ccc1OCCCC(=O)NO [Droxinostat] | 1 | 1 | 0 | 2 |  | 12 | 23 | 3 | 4 |  |  | 
4 | Cn1c(CCCCCCC(=O)NO)nc2cc(N(CCCl)CCCl)ccc21 [EDO-S101] | 2 | 8 | 1 | 7 |  | 35 | 89 | 7 | 55 |  | 3 | 90
5 | Nc1ccccc1NC(=O)c1ccc(CNC(=O)OCc2cccnc2)cc1 [Entinostat] | 2 | 7 | 2 | 6 | 0.47 | 45 | 58 | 15 | 12 | 54 |  | 
6 | COc1ccc(-c2nc(N3CCOCC3)c3sc(CN(C)c4ncc(C(=O)NO)cn4)cc3n2)cn1 [Fimepinostat] | 25 | 29 | 43 | 55 | 0.01 | 81 | 61 | 25 | 4 | 92.5 |  | 
7 | Oc1cc(O)cc(/C=C/c2c(O)cccc2O)c1 [Gnetol] | 1 | 1 | 1 | 1 |  | 12 | 9 | 2 | 3 |  |  | 
8 | COc1ccc(/C=C/C(=O)NO)c(-c2ccc(-c3ccccc3)cc2)c1 [HDAC8-IN-1] | 2 | 14 | 0 | 2 |  | 10 | 3 | 2 | 0 |  |  | 
9 | O=C(CCc1ccc(CN[C@H](C(=O)OC2CCCC2)C2CCCCC2)cn1)NO [HDAC-IN-3] | 3 | 26 | 4 | 43 |  | 50 | 81 | 11 | 0 |  |  | 
10 | O=C(NO)c1ccc(CC(=O)N(CCO)c2ccccc2)cc1 [HPOB] | 1 | 1 | 1 | 1 |  | 29 | 55 | 6 | 13 |  |  | 
11 | O=C(NO)c1ccc(CNc2cccc3cccnc23)cc1 [MPT0G211] | 1 | 4 | 1 | 2 |  | 29 | 65 | 6 | 19 |  |  | 
12 | O=C(/C=C/c1ccc(O)c(O)c1)c1ccc(O[C@@H]2O[C@H](CO)[C@@H](O)[C@H](O)[C@H]2O)c(O)c1O [Marein] | 1 | 77 | 0 | 74 |  | 20 | 22 | 5 | 4 |  |  | 
13 | Nc1ccccc1NC(=O)c1ccc(CNc2nccc(-c3cccnc3)n2)cc1 [Mocetinostat] | 4 | 9 | 3 | 29 | 0.25 | 60 | 39 | 15 | 9 | 50 |  | 
14 | Nc1ccccc1NC(=O)CCCCCC(=O)Nc1ccccc1 [NKL 22] | 1 | 4 | 0 | 1 |  | 28 | 55 | 7 | 13 |  |  | 

More lines, main results first:

Row | % PI+ cells (GM16513 cells [2]; 1.3 µM) [%] | % PI+ cells (GM16513 cells [2]; 10 µM) [%] | % PI+ cells (PEX405 cells [4]; 1.3 µM) [%] | % PI+ cells (PEX405 cells [4]; 10 µM) [%] | EC50 (GM16513 cells [1]; [5]) [µM] | SMILES | % Importing cells (GM16513 cells [1]; GM16513 cells, 1.3 µM, 3 days) [%] | % Importing cells (GM16513 cells [1]; GM16513 cells, 10 µM, 3 days) [%] | % Importing cells (PEX405 cells [3]; 1.3 µM) [%] | % Importing cells (PEX405 cells [3]; 10 µM) [%] | Emax (GM16513 cells [1]; [6]) [%] | EC50 (GM16513 cells [1]) [µM] | Emax (GM16513 cells [1]) [%]
15 | 11 | 40 | 9 | 61 |  | Cl.O=C(NO)c1ccc(Cn2cc(-c3ccc(CN4CCCC4)cc3)nn2)cc1 [FNDR-20123] | 84 | 47 | 7 | 0 |  |  | 
16 | 1 | 7 | 0 | 1 |  | CC1(C)c2cccc(C(=O)NO)c2CN1c1cnc(C(F)(F)F)cn1 [FT895] | 14 | 4 | 1 | 0 |  |  | 
17 | 1 | 1 | 0 | 0 |  | O=C(c1ccc(Cl)cc1Cl)n1nnc2ccccc21 [ITSA-1] | 9 | 12 | 3 | 1 |  |  | 
18 | 1 | 3 | 0 | 2 |  | O=C(NO)c1ccc(Cn2c(=O)n(CCc3ccccc3)c(=O)c3ccccc32)cc1 [J22352] | 30 | 47 | 5 | 3 |  |  | 
19 | 1 | 2 | 1 | 1 | 14.3 | O=C(NO)c1ccc(CN(c2cnccn2)c2cnccn2)cc1 [KA2507] | 17 | 52 | 2 | 18 | 100 |  | 
20 | 2 | 15 | 1 | 16 |  | Cc1cc(C)cc(C(=O)NOCCCCCC(=O)NO)c1 [LMK-235] | 86 | 95 | 45 | 18 |  |  | 
21 | 3 | 90 | 0 | 91 |  | Cn1c(/C=C/C(=O)NO)ccc1/C=C/C(=O)c1cccc(F)c1 [MC1568] | 25 | 21 | 5 | 6 |  |  | 
